Reference: ChEMBL document CHEMBL2390824, “Carbonic anhydrase inhibitors. Benzenesulfonamides incorporating cyanoacrylamide moieties strongly inhibit Saccharomyces cerevisiae β-carbonic anhydrase” (Bioorg Med Chem Lett, 2013)

What was measured:
[1] = Selectivity ratio of Ki for Sachcharomyces cerevisiae beta carbonic anhydrase to Ki for human carbonic anhydrase-1
[2] = Selectivity ratio of Ki for Sachcharomyces cerevisiae beta carbonic anhydrase to Ki for human carbonic anhydrase-2
[3] = Inhibition of Sachcharomyces cerevisiae beta carbonic anhydrase after 15 mins by stopped-flow CO2 hydrase assay; design: species or system Saccharomyces cerevisiae
Saccharomyces cerevisiae = test: Antifungal activity against wild type Saccharomyces cerevisiae BY4742 assessed as growth inhibition after 48 hrs by microplate spectrophotometric analysis; format: functional; details: BY4742, 48 h, read-out: CC50

Compound | Ratio Ki [1] | Ratio Ki [2] | Ki [3] [nM] | Growth inhibition IC50 (Saccharomyces cerevisiae) [nM]
N#C/C(=C\c1ccc(Cl)cc1Cl)C(=O)Nc1ccc(S(N)(=O)=O)cc1 | 5.17 | 3.61 | 9.1 | –
COc1ccc(/C=C(\C#N)C(=O)Nc2ccc(S(N)(=O)=O)cc2)cc1 | 43 | 9.78 | 0.92 | 1140
CC(=O)Nc1nnc(S(N)(=O)=O)s1 [ACETAZOLAMIDE] | 3.02 | 0.14 | 82.6 | –
N#C/C(C(=O)Nc1ccc(S(N)(=O)=O)cc1)=C(\S)Nc1ccccc1 | 1.47 | 0.14 | 45.8 | –
N#C/C(=C\c1ccc2c(c1)OCO2)C(=O)Nc1ccc(S(N)(=O)=O)cc1 | 3.29 | 1.9 | 7.5 | –
COc1ccc(/C=C(\C#N)C(=O)Nc2ccc(S(N)(=O)=O)cc2)cc1OC | 4.34 | 2.58 | 7.2 | –
COc1ccccc1/C=C(\C#N)C(=O)Nc1ccc(S(N)(=O)=O)cc1 | 1.02 | 0.1 | 69.5 | –
CN(C)c1ccc(/C=C(\C#N)C(=O)Nc2ccc(S(N)(=O)=O)cc2)cc1 | 15.8 | 6.46 | 3 | 6220
N=c1oc2ccccc2cc1C(=O)Nc1ccc(S(N)(=O)=O)cc1 | 5.67 | 1.88 | 5.8 | –
COc1cc(/C=C(\C#N)C(=O)Nc2ccc(S(N)(=O)=O)cc2)ccc1O | 5.87 | 1.07 | 5.6 | –
N#CCC(=O)Nc1ccc(S(N)(=O)=O)cc1 | 6.25 | 0.7 | 8.7 | –
N#C/C(=C\C=C\c1ccccc1)C(=O)Nc1ccc(S(N)(=O)=O)cc1 | 3.16 | 5.3 | 5.9 | –
N#C/C(=C\c1ccc(O)cc1)C(=O)Nc1ccc(S(N)(=O)=O)cc1 | 23.6 | 13.5 | 2.5 | 6540
CC(=O)C1=NN(c2ccccc2)/C(=C(\C#N)C(=O)Nc2ccc(S(N)(=O)=O)cc2)S1 | 2.02 | 0.13 | 57.3 | –
N#C/C(=N\Nc1ccccc1)C(=O)Nc1ccc(S(N)(=O)=O)cc1 | 5.23 | 1.3 | 6.5 | –
COc1cc(/C=C(\C#N)C(=O)Nc2ccc(S(N)(=O)=O)cc2)cc(OC)c1OC | 5.17 | 1.05 | 7.1 | –
N#C/C(=C\c1ccc(O)c(O)c1)C(=O)Nc1ccc(S(N)(=O)=O)cc1 | 69.9 | 5.6 | 0.75 | 890
N#C/C(=C\c1ccc([N+](=O)[O-])cc1)C(=O)Nc1ccc(S(N)(=O)=O)cc1 | 2.15 | 0.29 | 18.6 | –
COc1cc(OC)c(/C=C(\C#N)C(=O)Nc2ccc(S(N)(=O)=O)cc2)c(OC)c1 | 37.6 | 9.85 | 0.68 | 730
N#C/C(=C\c1ccccc1Cl)C(=O)Nc1ccc(S(N)(=O)=O)cc1 | 4.91 | 7.26 | 8.4 | –
N#C/C(=C\c1cccs1)C(=O)Nc1ccc(S(N)(=O)=O)cc1 | 1.6 | 0.81 | 3.3 | –
COc1cc(OC)c(OC)cc1/C=C(\C#N)C(=O)Nc1ccc(S(N)(=O)=O)cc1 | 4.93 | 4.44 | 8.6 | –
N#C/C(=C\c1ccco1)C(=O)Nc1ccc(S(N)(=O)=O)cc1 | 0.8 | 0.72 | 7.6 | –
